Results: US8999967B2, “Tricyclic fused ring inhibitors of hepatitis C” (Presidio Pharmaceuticals, Inc., priority 2010, dated 2015)

Test system: HCV 1b_Huh-Luc/Neo-ET cell line (genotype 1b replicon in Huh 7 cells)
Experiment: HCV replicon assay (luciferase readout)
Assay type: cell-based
Settings: Hepatitis C virus, HCV 1b replicon in Huh 7 cells, 72 h incubation, EC50 range class, read-out: Inhibition of HCV genotype 1b
Outline: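 Huh 7 cells stably carrying a bicistronic genotype 1b luciferase replicon were treated in triplicate the day after plating and incubated 72 h before luciferase read-out. Signal was expressed as % of untreated control, and EC50 was fitted by four-parameter logistic and averaged over repeat determinations.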

`COC(=O)N[C@H](C(=O)N1CCC[C@H]1c1ncc(-c2ccc3oc4cc(-c5cnc([C@@H]6CCCN6C(=O)[C@@H](NC(=O)OC)C6CCOCC6)[nH]5)c(F)cc4c(=O)c3c2)[nH]1)C1CCOCC1` [Example 23] was tested, and the EC50 was < 1 nM.
`C=CC[C@H](NC(=O)OC)C(=O)N1CCC[C@H]1c1ncc(-c2ccc3c(c2)C(C)(C)c2ccc(-c4ccc5nc([C@@H]6CCCN6C(=O)[C@H](CC=C)NC(=O)OC)[nH]c5c4)cc2O3)[nH]1` [Compound 148] was tested, and the EC50 was < 1 nM.
With `COC(=O)N[C@@H](C(=O)N1CCCC[C@H]1c1ncc(-c2ccc3c(c2)Oc2ccc(-c4cnc([C@@H]5CCCCN5C(=O)[C@H](NC(=O)OC)c5ccccc5)[nH]4)cc2O3)[nH]1)c1ccccc1` [Compound 48] the EC50 was < 1 nM.
With `COC(=O)N[C@H](C(=O)N1CCC[C@H]1c1ncc(-c2ccc3oc4cc(-c5cnc([C@@H]6CCCN6C(=O)[C@H](NC(=O)OC6CCOCC6)c6ccccc6)[nH]5)ccc4c(=O)c3c2)[nH]1)C(C)C` [Example 21] the EC50 was < 1 nM.
With `CC[C@H](C)[C@H](NC(=O)OC)C(=O)N1CCC[C@H]1c1ncc(-c2ccc3c(=O)c4cc(-c5cnc([C@@H]6CCCN6C(=O)[C@@H](NC(=O)OC)[C@@H](C)CC)[nH]5)ccc4oc3c2)[nH]1` [Compound 138] the EC50 was < 1 nM.
In the case of `COC[C@H](NC(=O)OC)C(=O)N1CCC[C@H]1c1ncc(-c2ccc3c(c2)Cc2cc(F)c(-c4cnc([C@@H]5CCCN5C(=O)[C@@H](NC(=O)OC)C(C)C)[nH]4)cc2O3)[nH]1` [Compound 45], the EC50 is reported as < 1 nM.
In the case of `COC(=O)N[C@H](C(=O)N1CSC[C@H]1c1ncc(-c2ccc3c(=O)c4cc(-c5cnc([C@@H]6CSCN6C(=O)[C@@H](NC(=O)OC)C(C)C)[nH]5)ccc4oc3c2)[nH]1)C(C)C` [Compound 128], the EC50 is reported as < 1 nM.
With `COC(=O)N[C@@H](C)C(=O)N1CCC[C@H]1c1ncc(-c2ccc3oc4cc(-c5cnc([C@@H]6CCCN6C(=O)[C@@H](NC(=O)OC)C(C)C)[nH]5)ccc4c(=O)c3c2)[nH]1` [Example 20] the EC50 was < 1 nM.
With `COC(=O)N[C@H](C(=O)N1CCC[C@H]1c1ncc(-c2ccc3c(=O)c4cc(-c5cnc([C@@H]6COCCN6C(=O)[C@@H](NC(=O)OC)C(C)C)[nH]5)ccc4oc3c2)[nH]1)C(C)C` [Compound 142] the EC50 was < 1 nM.
